Data from ChEMBL document CHEMBL1201862, “PubChem BioAssay data set” (2004).
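Grown in 96-well plates, cells were treated for 48 hours with each compound at five concentrations. Insufficient inhibition: endpoint recorded as highest concentration tested. GI50: concentration for 50% inhibition of growth.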 The source made the active and inactive calls. Cut-off read from the data, not from the text of the source: active = GI50 up to about 1.1 µM and inactive = higher.

Key:
Experiment in all cases: growth of human tumour cells (NCI), 48 h
786-0 = tested on: 786-0
A498 = tested on: A498
A549 = tested on: A549
ACHN = tested on: ACHN
BT-549 = tested on: BT-549
CAKI-1 = tested on: CAKI-1
CCRF-CEM = tested on: CCRF-CEM
COLO 205 = tested on: COLO 205
DU-145 = tested on: DU-145
EKVX = tested on: EKVX
HCC 2998 = tested on: HCC 2998
HCT-116 = tested on: HCT-116
HCT-15 = tested on: HCT-15
HL-60 = tested on: HL-60
HOP-62 = tested on: HOP-62
HOP-92 = tested on: HOP-92
HT-29 = tested on: HT-29
Hs-578T = tested on: Hs-578T
IGROV-1 = tested on: IGROV-1
K562 = tested on: K562
KM12 = tested on: KM12
LOX IMVI = tested on: LOX IMVI
M14 = tested on: M14
MCF7 = tested on: MCF7
MDA-MB-231 = tested on: MDA-MB-231
MDA-MB-435 = tested on: MDA-MB-435
MDA-N = tested on: MDA-N
MOLT-4 = tested on: MOLT-4
Malme-3M = tested on: Malme-3M
NCI-H226 = tested on: NCI-H226
NCI-H23 = tested on: NCI-H23
NCI-H460 = tested on: NCI-H460
NCI-H522 = tested on: NCI-H522
NCI/ADR-RES = tested on: NCI/ADR-RES
OVCAR-3 = tested on: OVCAR-3
OVCAR-4 = tested on: OVCAR-4
OVCAR-5 = tested on: OVCAR-5
OVCAR-8 = tested on: OVCAR-8
PC-3 = tested on: PC-3
RPMI-8226 = tested on: RPMI-8226
SF-268 = tested on: SF-268
SF-295 = tested on: SF-295
SF-539 = tested on: SF-539
SK-MEL-28 = tested on: SK-MEL-28
SK-MEL-2 = tested on: SK-MEL-2
SK-MEL-5 = tested on: SK-MEL-5
SK-OV-3 = tested on: SK-OV-3
SN12C = tested on: SN12C
SNB-19 = tested on: SNB-19
SNB-75 = tested on: SNB-75
SR = tested on: SR
SW-620 = tested on: SW-620
T47D = tested on: T47D
TK-10 = tested on: TK-10
U-251 = tested on: U-251
UACC-257 = tested on: UACC-257
UACC-62 = tested on: UACC-62
UO-31 = tested on: UO-31

SMILES: CC(C)(C)c1cc(C(C)(C)C)c(P=C(Cl)Cl)c(C(C)(C)C)c1 (stereo not drawn)
- GI50 (786-0): > 100 µM (inactive)
- GI50 (A498): > 100 µM (inactive)
- GI50 (A549): > 100 µM (inactive)
- GI50 (ACHN): > 100 µM (inactive)
- GI50 (BT-549): > 100 µM (inactive)
- GI50 (CAKI-1): > 100 µM (inactive)
- GI50 (CCRF-CEM): > 100 µM (inactive)
- GI50 (COLO 205): > 100 µM (inactive)
- GI50 (DU-145): > 100 µM (inactive)
- GI50 (EKVX): > 100 µM (inactive)
- GI50 (HCC 2998): > 100 µM (inactive)
- GI50 (HCT-116): > 100 µM (inactive)
- GI50 (HCT-15): > 100 µM
- GI50 (HL-60): > 100 µM (inactive)
- GI50 (HOP-62): > 100 µM (inactive)
- GI50 (HOP-92): > 100 µM (inactive)
- GI50 (HT-29): > 100 µM (inactive)
- GI50 (Hs-578T): > 100 µM (inactive)
- GI50 (IGROV-1): > 100 µM (inactive)
- GI50 (K562): 0.0478 µM (active)
- GI50 (KM12): > 100 µM (inactive)
- GI50 (LOX IMVI): > 100 µM (inactive)
- GI50 (M14): > 100 µM (inactive)
- GI50 (MCF7): > 100 µM (inactive)
- GI50 (MDA-MB-231): > 100 µM (inactive)
- GI50 (MDA-MB-435): > 100 µM (inactive)
- GI50 (MDA-N): > 100 µM (inactive)
- GI50 (MOLT-4): > 100 µM (inactive)
- GI50 (Malme-3M): > 100 µM (inactive)
- GI50 (NCI-H226): > 100 µM (inactive)
- GI50 (NCI-H23): > 100 µM (inactive)
- GI50 (NCI-H460): > 100 µM (inactive)
- GI50 (NCI-H522): > 100 µM (inactive)
- GI50 (NCI/ADR-RES): > 100 µM (inactive)
- GI50 (OVCAR-3): > 100 µM (inactive)
- GI50 (OVCAR-4): > 100 µM (inactive)
- GI50 (OVCAR-5): > 100 µM (inactive)
- GI50 (OVCAR-8): > 100 µM (inactive)
- GI50 (PC-3): > 100 µM (inactive)
- GI50 (RPMI-8226): > 100 µM (inactive)
- GI50 (SF-268): > 100 µM (inactive)
- GI50 (SF-295): > 100 µM (inactive)
- GI50 (SF-539): > 100 µM (inactive)
- GI50 (SK-MEL-28): > 100 µM (inactive)
- GI50 (SK-MEL-2): > 100 µM (inactive)
- GI50 (SK-MEL-5): > 100 µM (inactive)
- GI50 (SK-OV-3): > 100 µM (inactive)
- GI50 (SN12C): > 100 µM (inactive)
- GI50 (SNB-19): > 100 µM (inactive)
- GI50 (SNB-75): > 100 µM (inactive)
- GI50 (SR): > 100 µM (inactive)
- GI50 (SW-620): > 100 µM (inactive)
- GI50 (T47D): > 100 µM (inactive)
- GI50 (TK-10): > 100 µM (inactive)
- GI50 (U-251): > 100 µM (inactive)
- GI50 (UACC-257): > 100 µM (inactive)
- GI50 (UACC-62): > 100 µM (inactive)
- GI50 (UO-31): > 100 µM (inactive)
